In US9856254B2, “Alkoxy substituted imidazoquinolines” (3M INNOVATIVE PROPERTIES COMPANY, priority 2003, dated 2018):
Counter-ions that a name gives are not always drawn.

Row | Compound | melting point
1 | CCCn1c(COCC)nc2c(N)nc3ccc(OCCCCCCNS(C)(=O)=O)cc3c21 [Example 409, N-(6-{[4-Amino-2-(ethoxymethyl)-1-propyl-1H-imidazo[4,5-c]quinolin-8-yl]oxy}hexyl)methanesulfonamide] | 164 to 167 °C
2 | CCCn1c(CCO)nc2c(N)nc3cc(OCCCNC(=O)c4cccnc4)ccc3c21 [Example 396, N-(3-{[4-Amino-2-(2-hydroxyethyl)-1-propyl-1H-imidazo[4,5-c]quinolin-7-yl]oxy}propyl)nicotinamide] | 183.5 to 184.5 °C
3 | CCCn1c(COCC)nc2c(N)nc3ccc(OCC(=O)N4CCN(C(=O)OC(C)(C)C)CC4)cc3c21 [Example 404, tert-Butyl 4-({[4-amino-2-(ethoxymethyl)-1-propyl-1H-imidazo[4,5-c]quinolin-8-yl]oxy}acetyl)piperazine-1-carboxylate] | 192 to 197 °C (dec.)
4 | CCCCc1nc2c(N)nc3ccc(OCCNC(=O)CC)cc3c2n1C [Example 43, N-[2-(4-Amino-2-butyl-1-methyl-1H-imidazo[4,5-c]quinolin-8-yloxy)ethyl]propanamide] | 250 to 255 °C (dec.)
5 | CCc1nc2c(N)nc3cc(OS(C)(=O)=O)ccc3c2n1CCOc1ccccc1 (as salt: methanesulfonate) [Example 367, 4-Amino-2-ethyl-1-(2-phenoxyethyl)-1H-imidazo[4,5-c]quinolin-7-yl methanesulfonate] | 213 to 214.5 °C
6 | CCCn1c(CCOC)nc2c(N)nc3cc(OC(=O)NC(C)C)ccc3c21 [Example 366, 4-Amino-2-(2-methoxyethyl)-1-propyl-1H-imidazo[4,5-c]quinolin-7-yl isopropylcarbamate] | 144 to 146 °C
7 | CCCn1c(CCOC)nc2c(N)nc3cc(OCCCNC(=O)OC(C)(C)C)ccc3c21 [Example 393, tert-Butyl 3-{[4-amino-2-(2-methoxyethyl)-1-propyl-1H-imidazo[4,5-c]quinolin-7-yl]oxy}propylcarbamate] | 133.5 to 135 °C
8 | CCCn1c(CCOC)nc2c(N)nc3cc(OC4CCN(S(C)(=O)=O)CC4)ccc3c21 [Example 390, 2-(2-Methoxyethyl)-7-{[1-(methylsulfonyl)piperidin-4-yl]oxy}-1-propyl-1H-imidazo[4,5-c]quinolin-4-amine] | 224 to 225.5 °C
9 | CCc1nc2c(N)nc3cc(OCC(=O)N4CCOCC4)ccc3c2n1CCOc1ccccc1 [Example 53, 2-Ethyl-7-(2-morpholin-4-yl-2-oxoethoxy)-1-(2-phenoxyethyl)-1H-imidazo[4,5-c]quinolin-4-amine] | 208 to 209 °C
10 | CCc1nc2c(N)nc3cc(OCC(=O)C(C)(C)C)ccc3c2n1CCOc1ccccc1 [Example 52, 1-[4-Amino-2-ethyl-1-(2-phenoxyethyl)-1H-imidazo[4,5-c]quinolin-7-yloxy]-3,3-dimethylbutan-2-one] | 238 to 239 °C (dec.)
11 | CCOCc1nc2c(N)nc3cc(OCCNC(=O)OC(C)(C)C)ccc3c2n1CC1COC(C)(C)O1 (stereo not shown) [Example 372, tert-Butyl 2-{[4-amino-1-[(2,2-dimethyl-1,3-dioxolan-4-yl)methyl]-2-(ethoxymethyl)-1H-imidazo[4,5-c]quinolin-7-yl]oxy}ethylcarbamate] | 82 to 84 °C
12 | CCOCc1nc2c(N)nc3cc(OCCCCCCNC(C)=O)ccc3c2n1CC(C)(C)NC(=O)NC(C)C [Example 370, N-(6-{[4-Amino-2-(ethoxymethyl)-1-(2-{[(isopropylamino)carbonyl]amino}-2-methylpropyl)-1H-imidazo[4,5-c]quinolin-7-yl]oxy}hexyl)acetamide] | 90 to 110 °C
13 | CCOCc1nc2c(N)nc3cc(OCCCCCCNS(C)(=O)=O)ccc3c2n1CC(C)(C)NC(=O)NC(C)C [Example 371, N-(6-{[4-Amino-2-(ethoxymethyl)-1-(2-{[(isopropylamino)carbonyl]amino}-2-methylpropyl)-1H-imidazo[4,5-c]quinolin-7-yl]oxy}hexyl)methanesulfonamide] | 190 to 194 °C
14 | CCCc1nc2c(N)nc3cc(OCCCN4CCCS4(=O)=O)ccc3c2n1CC(C)C [Example 13, 7-[3-(1,1-Dioxidoisothiazolidin-2-yl)propoxy]-1-(2-methylpropyl)-2-propyl-1H-imidazo[4,5-c]quinolin-4-amine] | 142 to 144 °C
15 | CCCCc1nc2c(N)nc3ccc(OCCC4CCN(S(C)(=O)=O)CC4)cc3c2n1C [Example 41, 2-Butyl-8-{2-[1-(methanesulfonyl)piperidin-4-yl]ethoxy}-1-methyl-1H-imidazo[4,5-c]quinolin-4-amine] | 198 to 199.5 °C
16 | CCOCc1nc2c(N)nc3cc(OCCCN4CCCC4=O)ccc3c2n1CCCCNC(=O)NC(C)C [Example 399, N-(4-{4-Amino-2-(ethoxymethyl)-7-[3-(2-oxopyrrolidin-1-yl)propoxy]-1H-imidazo[4,5-c]quinolin-1-yl}butyl)-N′-isopropylurea] | 98 to 101 °C
17 | Cc1nc2c(N)nc3cc(OCCNC(=O)C(C)C)ccc3c2n1CC(C)C [Example 17, N-{2-[4-Amino-2-methyl-1-(2-methylpropyl)-1H-imidazo[4,5-c]quinolin-7-yloxy]ethyl}-2-methylpropanamide] | 205 to 206 °C
18 | CCOCc1nc2c(N)nc3cc(OCCCCCCNC(C)=O)ccc3c2n1CC(C)(C)NS(C)(=O)=O [Example 46, N-(6-{[4-Amino-2-ethoxymethyl-1-(2-methanesulfonylamino-2-methylpropyl)-1H-imidazo[4,5-c]quinolin-7-yl]oxy}hexyl)acetamide] | 169 to 171 °C
19 | CCCCc1nc2c(N)nc3ccc(OCC(=O)N4CCOCC4)cc3c2n1C [Example 32, 2-Butyl-1-methyl-8-(2-morpholin-4-yl-2-oxoethoxy)-1H-imidazo[4,5-c]quinolin-4-amine] | 256.8 to 257.2 °C
20 | Cc1nc2c(N)nc3cc(OCCC4CCN(C(=O)C5CCCC5)CC4)ccc3c2n1CC(C)C [Example 27, 7-{2-[1-(Cyclopentylcarbonyl)piperidin-4-yl]ethoxy}-2-methyl-1-(2-methylpropyl)-1H-imidazo[4,5-c]quinolin-4-amine] | 235.7 to 238.1 °C

The next lines start with the values.

Row | melting point | Compound
21 | 178 to 179.5 °C | CCCn1c(COCC)nc2c(N)nc3cc(OC4CCN(C(C)=O)CC4)ccc3c21 [Example 560, 7-[(1-Acetylpiperidin-4-yl)oxy]-2-(ethoxymethyl)-1-propyl-1H-imidazo[4,5-c]quinolin-4-amine]
22 | 245 to 247 °C | CCc1nc2c(N)nc3cc(OCC(=O)N4CCOCC4)ccc3c2n1CC1CCOCC1 [Example 553, 2-Ethyl-7-(2-morpholin-4-yl-2-oxoethoxy)-1-(tetrahydro-2H-pyran-4-ylmethyl)-1H-imidazo[4,5-c]quinolin-4-amine]
23 | 193 to 196 °C | CCCn1c(COCC)nc2c(N)nc3ccc(OC(=O)N4CCOCC4)cc3c21 [Example 570, 4-Amino-2-(ethoxymethyl)-1-propyl-1H-imidazo[4,5-c]quinolin-8-yl morpholine-4-carboxylate]
24 | 230 to 232 °C | CCc1nc2c(N)nc3cc(OCCN4CCOCC4)ccc3c2n1CC1CCOCC1 [Example 568, 2-Ethyl-7-(2-morpholin-4-ylethoxy)-1-(tetrahydro-2H-pyran-4-ylmethyl)-1H-imidazo[4,5-c]quinolin-4-amine]
25 | 173 to 174 °C | CCCn1c(COC)nc2c(N)nc3ccc(OCCCOC(=O)N4CCOCC4)cc3c21 [Example 555, 3-{[4-Amino-2-(methoxymethyl)-1-propyl-1H-imidazo[4,5-c]quinolin-8-yl]oxy}propyl morpholine-4-carboxylate]
26 | 200 to 201 °C | CCc1nc2c(N)nc3cc(OCCNC(=O)OC(C)(C)C)ccc3c2n1CC1CCOCC1 [Example 551, tert-Butyl 2-{[4-amino-2-ethyl-1-(tetrahydro-2H-pyran-4-ylmethyl)-1H-imidazo[4,5-c]quinolin-7-yl]oxy}ethylcarbamate]
27 | 213 °C | CCCn1c(COCC)nc2c(N)nc3cc(OCC(=O)N4CCOCC4)ccc3c21 [Example 648, 2-(Ethoxymethyl)-7-(2-morpholin-4-yl-2-oxoethoxy)-1-propyl-1H-imidazo[4,5-c]quinolin-4-amine]
28 | 146 to 148 °C | CCCn1c(COCC)nc2c(N)nc3ccc(OCCN4CCCCCC4)cc3c21 [Example 571, 8-(2-Azepan-1-ylethoxy)-2-(ethoxymethyl)-1-propyl-1H-imidazo[4,5-c]quinolin-4-amine]
29 | 178 to 179 °C | CCCn1c(COCC)nc2c(N)nc3ccc(OCC4CCCO4)cc3c21 (stereo not shown) [Example 569, 2-(Ethoxymethyl)-1-propyl-8-(tetrahydrofuran-2-ylmethoxy)-1H-imidazo[4,5-c]quinolin-4-amine]
30 | 165 to 167 °C | CCc1nc2c(N)nc3cc(OCCNC(C)=O)ccc3c2n1CC1CCOCC1 [Example 652, N-(2-{[4-Amino-2-ethyl-1-(tetrahydro-2H-pyran-4-ylmethyl)-1H-imidazo[4,5-c]quinolin-7-yl]oxy}ethyl)acetamide]
31 | 202 to 204 °C | CCCn1c(COCC)nc2c(N)nc3cc(OC4CCNCC4)ccc3c21 [Example 416, 2-(Ethoxymethyl)-7-(piperidin-4-yloxy)-1-propyl-1H-imidazo[4,5-c]quinolin-4-amine]
32 | 131 to 136 °C | COCCc1nc2c(N)nc3cc(OCC4OCCO4)ccc3c2n1CC(C)(C)O [Example 564, 1-[4-Amino-7-(1,3-dioxolan-2-ylmethoxy)-2-(2-methoxyethyl)-1H-imidazo[4,5-c]quinolin-1-yl]-2-methylpropan-2-ol]
33 | 193 to 196 °C | CCCn1c(COC)nc2c(N)nc3ccc(OCCCN4CCOCC4)cc3c21 [Example 554, 2-Methoxymethyl-8-(3-morpholin-4-ylpropoxy)-1-propyl-1H-imidazo[4,5-c]quinolin-4-amine]
34 | 214 to 215 °C (dec.) | CCOCc1nc2c(N)nc3cc(OC4CCN(C(=O)OC(C)(C)C)CC4)ccc3c2n1CC(C)(C)O [Example 563, tert-Butyl 4-{[4-amino-2-(ethoxymethyl)-1-(2-hydroxy-2-methylpropyl)-1H-imidazo[4,5-c]quinolin-7-yl]oxy}piperidine-1-carboxylate]
